Test results published in patent US20260132413A1, “AROGENATE DEHYDROGENASE POLYNUCLEOTIDES, POLYPEPTIDES AND METHODS OF USING THE SAME” (Wisconsin Alumni Research Foundation, priority 2017, published 2026).
Entries after “also recorded” stand apart in the source; their conditions may differ.

Columns and labels:
BvADHα = assay: Tyr/effector sensitivity of ADH activity of purified recombinant enzyme; type: biochemical, Beta vulgaris; conditions: for effect of effector on ADH activity: effector at 1 mM
Protocol: (§1) […]. The production of reduced cofactor (NADPH) was monitored at 340 nm using a spectrophotometer every two minutes for 10 min. In addition, other effectors (L-Phe, L-Trp, and betanin) were used to test possible inhibition of the enzyme ADH activity at a final concentration of 1 mM. All of the reactions were performed under non-saturated condition, where activity increased linearly depending on reaction times and enzyme concentrations.

BvADHβ = assay: as above; type: biochemical, Beta vulgaris; conditions: for effect of effector on ADH activity: effector at 1 mM; for inhibition of ADH activity: GST-tagged BvADHβ
Protocol: as §1

AtADH2 = target: T1, AtADH2 (Arabidopsis thaliana, UniProt Q9LMR3); assay: Effector sensitivity of ADH activity of purified recombinant enzyme; type: biochemical; conditions: effector at 1 mM
T1 construct: made in house; host or cells: E. coli Rosetta-2 (pGEX-2T)
T1 sequence (Q9LMR3 37-358): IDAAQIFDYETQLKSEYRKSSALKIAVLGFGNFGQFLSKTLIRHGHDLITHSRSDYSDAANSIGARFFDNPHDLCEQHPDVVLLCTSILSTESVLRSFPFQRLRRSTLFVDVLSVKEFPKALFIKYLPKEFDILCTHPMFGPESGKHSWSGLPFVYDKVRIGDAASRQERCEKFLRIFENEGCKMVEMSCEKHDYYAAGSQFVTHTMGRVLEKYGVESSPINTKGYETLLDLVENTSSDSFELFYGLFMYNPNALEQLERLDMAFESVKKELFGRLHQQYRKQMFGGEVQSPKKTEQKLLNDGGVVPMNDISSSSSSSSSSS
Protocol: as §1

[1] = system: ADH activity of spinach leaf plastid extract; assay: Tyr sensitivity of ADH activity from plant tissue extracts; type: biochemical, Spinach oleracea; conditions: 1 mM arogenate, 1 mM NADP+; for inhibition (%): 0.5 mM effector vs 0 mM, 2 hr
Protocol: (§2) Spinach oleracea seeds (HighMowing, Wolcott, VT) and pink Dianthus barbatus (BloomIQ, Lansing, MI) seedlings were purchased from a nursery and were grown together with Arabidopsis thaliana (ecotype Columbia) in 22° C., 60% humidity, and 12/12 h light cycle growth chamber. Leaves of spinach and Arabidopsis seedlings were harvested at 3-week-old, and Dianthus barbatus leaves were harvested at 6-week-old. The crude extracts of Arabidopsis or Dianthus barbatus were prepared from ˜1 g leaf tissues according to Aryal et al. (2014). For spinach, ˜10 g leaf tissues were used to isolate the plastids according to Aryal et al. (2014) in order to avoid the undesired cytosolic polyphenol oxidase activity. Crude or plastid fractions were desalted by Sephadex G50 column to obtain protein extracts, and protein concentration of all biological replicates were adjusted to 0.06, 0.85, and 0.6 mg/mL for spinach, Dianthus barbatus, and Arabidopsis extracts, respectively. […] The reaction was stopped by adding 20 μL methanol containing 10 μM norvaline as an internal standard. Respective boiled protein extracts were used as negative controls. […]

[2] = system: ADH activity of Dianthus barbatus leaf crude extract; assay: as above; type: biochemical; conditions: 1 mM arogenate, 1 mM NADP+; for inhibition (%): 0.5 mM effector vs 0 mM, 2 hr
Protocol: as §2

[3] = system: ADH activity of Arabidopsis leaf crude extract; assay: as above; type: biochemical, Arabidopsis thaliana; conditions: 1 mM arogenate, 1 mM NADP+; for inhibition (%): 0.5 mM effector vs 0 mM, 2 hr
Protocol: as §2

SoADHα = assay: Tyr sensitivity of ADH activity of purified recombinant enzyme; type: biochemical, Spinacia oleracea
Protocol: as §1

NaADHβ = assay: as above; type: biochemical, Nepenthes ventricosa x alata
Protocol: as §1

[4] = 0.5 mM 3-fluoro-Tyr, 2 hr incubation

Row | effect of effector on ADH activity (AtADH2) | Compound | effect of effector on ADH activity (BvADHα) | effect of effector on ADH activity (BvADHβ) | inhibition (%) [1] [%] | inhibition (%) [2] | inhibition (%) [3] | also measured
1 | did not significantly reduce | O=C(O)C1=C/C(=C/C=[N+]2/c3cc(O)c(OC4OC(CO)[C@@H](O)C(O)C4O)cc3CC2C(=O)[O-])CC(C(=O)O)N1 (stereo in doubt) [betanin] | did not significantly reduce; also recorded: not inhibited | did not significantly reduce; also recorded: not inhibited | – | – | – | –
2 | – | NC(Cc1ccc(O)c(F)c1)C(=O)O (centres unmarked) [3-fluoro-Tyr] | – | – | 20.7 | 95.0% | 91.6% | ADH activity [1, 4]: 52.7 ± 1.9 nmol/mg protein; ADH activity [2, 4]: 0.9 ± 0.2 nmol/mg protein; ADH activity [3, 4]: 7.8 ± 0.5 nmol/mg protein
3 | did not significantly reduce | N[C@@H](Cc1ccccc1)C(=O)O [Phe, L-phenylalanine] | did not significantly reduce | did not significantly reduce | – | – | – | effect of effector on ADH activity (BvADHα; listed as phenylalanine): not inhibited; effect of effector on ADH activity (BvADHβ; listed as phenylalanine): not inhibited
4 | – | N[C@@H](Cc1ccc(O)cc1)C(=O)O [Tyr, L-Tyrosine] | – | – | ~21 | 92-95% | 92-95% | reduction of ADH activity (BvADHα; 1 mM Tyr, GST-tagged BvADHα): half; sensitivity to Tyr (BvADHα; His-tagged BvADHα, compared with AtADH2): much less sensitivity to Tyr than AtADH2; inhibition of ADH activity (BvADHβ; 100 μM Tyr): 80%; inhibition of ADH activity (BvADHβ; 1 mM Tyr): 100%; Tyr sensitivity of ADH activity (SoADHα): reduced Tyr sensitivity; inhibition of ADH activity by Tyr (NaADHβ): strongly inhibited

Row | Compound | effect of effector on ADH activity (AtADH2) | effect of effector on ADH activity (BvADHα) | effect of effector on ADH activity (BvADHβ) | inhibition (%) [1] [%] | inhibition (%) [2] | inhibition (%) [3] | also measured
5 | N[C@@H](Cc1c[nH]c2ccccc12)C(=O)O [tryptophan, L-tryptophan] | did not significantly reduce | did not significantly reduce; also recorded: not inhibited | did not significantly reduce; also recorded: not inhibited | – | – | – | –
